Laboratory results reported in patent publication US11919854B2, “P2RX7 modulators in therapy” (Centre national de la recherche scientifique, priority 2018, dated 2024).

Test system: LLC (Lewis Lung Cancer) cells
Assay: Syngeneic tumor mice model, LLC subcutaneous
Assay type: in vivo, C57BL6 mice
Procedure: 5×10^5 LLC or 5×10^5 B16F10 cells were injected sub cutaneously in the right flank of C57BL6 mice. Mice received HEI3090 (ip, 2.5 mg/kg in 10% DMSO/PBS) daily or placebo (10% DMSO/PBS). A,C. incidence of tumor appearance B,D. Tumor size (mm2) and tumor weight at sacrifice day (J12). E. HEI-treated tumors are more immunogenic. Expression of CMH1 (H2K^b/D^b) and PD-L1 by LLC (black) and B16F10 (grey) tumors is shown in dot plots. Numbers highlighted the percentage of tumor cells positive for H2K^b/D^b and PD-L1. […] F. CD-45 positive infiltrates is increased in LLC and B16F10 tumors. *, p<0.05; **, p<0.01; ***, p<0.001 Mann-Whitney test.
5×10^5 LLC or 5×10^5 B16F10 cells were injected sub cutaneously in the right flank of C57BL6 mice. Mice received HEI3090 (ip, 2.5 mg/kg in 10% DMSO/PBS) daily or placebo (10% DMSO/PBS). A. The quantity of immunosuppressive cells is reduced. Dot plot of representative experiment. Numbers highlighted the percentage of M-MDSC and PMN-MDSC. […] B. The quantity of effector T cells ([…], NK, CD4+) is increased.
5×10^5 LLC cells were injected sub cutaneously in the right flank of C57BL6 mice. Mice received HEI3090 (ip, 2.5 mg/kg in 10% DMSO/PBS) alone or in presence of anti CD4 antibody daily or placebo (10% DMSO/PBS). A. Tumor growth from the 3 groups was followed daily. B. tumor weight at sacrifice day (J12). *, p<0.05; ****, p<0.0001 (Mann-Whitney test).
a, b. Phenotypic flow cytometry analyses of tumor infiltrating cells. LLC tumors were collected at day 12. Proportion of PMN-MDSC among CD45+ within LLC tumors from mice treated with vehicle or HEI3090 (a). Ratio of NK, CD4+ or CD8+ T cells on PMN-MDSC (b).
c, d. 5.105 LLC were injected s.c. into the flank of C57BL6/J mice. Then mice were treated i.p. with vehicle (PBS, 10% DMSO) or with HEI3090 (1.5 mg/kg in PBS, 10% DMSO) or with HEI3090 and depleting antibody against NK1.1, CD4+ or CD8+ T cells. Antibodies were administered i.p every 3 days (200 μg/injection). Spaghetti plots and tumor weight at day 12 (d). Each curve represents one mouse.
e-g Functional flow cytometry analyses of tumor infiltrating immune cells or splenocytes. Tumors were stimulated with PMA/ionomycine and production of IFN-γ and IL-10 were simultaneously analyzed in CD45+, NK, CD4+ or CD8+ T cells. Graphs shown proportion of IFN-γ producing cells into CD45+ cells or geometric mean of fluorescence (e). Representative dot plots of IFN-γ and IL-10 staining into TILs (f). Ratios of IFN-γ on IL-10 positive cells on each TIL. Degranulation assay of splenocytes from LLC tumor bearing mice treated with vehicle or HEI3090 (g) Splenocytes were re-stimulated with LLC in vitro and CD107a positive cells in NK, CD4+ and CD8+ T cells were represented.
a. Flow cytometry analyses of P2RX7 expression among conventional dendritic cells CD4+ or CD8+ within LLC tumors.
b. Protein levels of IL-1p and IL-18 in serum of LLC tumor bearing mice treated with vehicle or HEI3090, determined by ELISA.
c. 5.105 LLC were injected s.c. into the flank of C57BL6/J mice. Then mice were treated i.p. with vehicle (PBS, 10% DMSO) or with HEI3090 (1.5 mg/kg in PBS, 10% DMSO) or with HEI3090 and neutralizing antibody against IL-1p or IL-18 from day 1 to day 12. Antibodies were administered i.p every 3 days (200 μg/injection).
e. Effect of HEI3090 on tumor growth in IL-18 deficient mice (IL-18^−/−). 5.105 LLC were injected s.c. into the flank of IL-18^−/− mice. Mice were treated i.p. with vehicle (PBS, 10% DMSO) or with HEI3090 (1.5 mg/kg in PBS, 10% DMSO) from day 1 to day 12.
4.2. By killing tumoral cells, HEI3090 may represent a new anti-tumor treatment. To test this hypothesis, immunocompetent C57B16J mice were subcutaneously injected with 5×10^5 B16F10 or 5×10^5 LLC (Lewis Lung Cancer) cells and treated daily with HEI3090 (ip, 2.5 mg/kg in 10% DMSO/PBS) or placebo (10% DMSO/PBS). […]

## O=C(NCc1ccc(Cl)cc1Cl)[C@@H]1CCC(=O)N1C(=O)Nc1ccc(Cl)nc1 [HEI3090, (S)—N^1-(6-Chloropyridin-3-yl)-N^2-(2,4-dichlorobenzyl)-5-oxopyrrolidine-1,2-dicarboxamide]
ELISA in serum, IHC in tumors
  IL18 in plasma and within the tumor: overexpressed
HEI3090 1.5 mg/kg ip with depleting antibody against NK1.1, CD4+ or CD8+ T cells
  immune cells required for anti-tumor effect: both NK and CD4+ cells are required
HEI3090 1.5 mg/kg ip, flow cytometry
  IFN-γ expression of NK and CD4+ cells in tumor: expressed more IFN-γ
HEI3090 ip 2.5 mg/kg daily
  immunosuppressive cells (PMN-MDSC) in tumor infiltrates: less PMN-MDSC
HEI3090 ip 2.5 mg/kg daily (placebo 295 mg)
  tumors weight: 80 mg
HEI3090 ip 2.5 mg/kg daily, vs placebo
  reduction of tumors weight: 4 folds
HEI3090 plus anti-T CD4+ antibody
  tumor size with depletion of T CD4+ lymphocytes: bigger than tumors from the HEI3090 group, and smaller than tumors from the placebo group
Blocking IL18 antibody and Il18−/− mice, HEI3090 1.5 mg/kg ip
  tumor growth without IL18: did not block tumor growth anymore
Flow cytometry
  P2RX7 expression on dendritic cells within tumors: increased P2RX7 expression on dendritic cells
